From patent US20090029855A1, “Quinoline Derivatives and Their Use as Pesticides” (priority 2006, published 2009)

Experiments:
Type in all cases: in vivo
[1] = system: 2-Spotted Spider Mite (Tetranychus Urticae, OP-Resistant Strain); test: 2-spotted spider mite, lima bean plant dip; details: 300 ppm; after 5 days
Description: (§1) The active compounds were formulated in 50:50 acetone:water and 100 ppm Kinetic™ surfactant.
Sieva lima bean plants with primary leaves expanded to 7-12 cm were infested by placing on each a small piece from an infested leaf (with about 100 mites) taken from the main colony. This was done at about 2 hours before treatment to allow the mites to move over to the test plant to lay eggs. The piece of leaf used to transfer the mites was removed. The newly-infested plants were dipped in the test solution and allowed to dry. The test plants were kept under fluorescent light (24 hour photoperiod) at about 25° C. and 20-40% relative humidity. After 5 days, one leaf was removed and mortality counts were made.

[2] = system: Southern Armyworm (Spodoptera Eridanid), 2nd-3rd instar larvae; test: Southern armyworm, lima bean foliage dip; details: foliar, 96 h, after 4 days, read-out: mortality in comparison with untreated controls
Description: The active compounds were formulated as a 10.000 ppm solution in a mixture of 35% acetone and water, which was diluted with water, if needed.
Sieva lima bean foliage, expanded to the first true leaves, were dipped and agitated in the test solution for 3 seconds and then allowed to dry in a fume hood. The treated plant was then placed in 25-cm plastic perforated zip enclosure bags, ten 2nd-instar larvae were added, and the bags sealed. After 4 days, observations were made of mortality, plant feeding, and of any interference with larval growth.

[3] = system: Colorado Potato Beetle (Leptinotarsa Decemlineata); test: Colorado potato beetle, potato leaf dip in Petri dishes; details: foliar, 120 h, 5 days after treatment, read-out: mortality in comparison with untreated controls
Description: Potato plants were utilized for bioassays. Excised plant leaves were dipped into 1:1 acetone/water dilutions of the active compounds. After the leaves had dried, they were individually placed onto water-moistened filter paper on the bottoms of Petri dishes. Each dish was infested with 5-7 larvae and covered with a lid. Each treatment dilution was replicated 4 times. Test dishes were held at approximately 27° C. and 60% humidity. Numbers of live and morbid larvae were assessed in each dish at 5 days after treatment application, and percent mortality was calculated.

[4] = system: Boll Weevil (Anthonomus grandis); test: Activity against boll weevil, eggs in microtiterplates; details: eggs sprayed, 3 to 5 days
Description: The active compounds were formulated in 1:3 DMSO:water. 10 to 15 eggs were placed into microtiterplates filled with 2% agar-agar in water and 300 ppm formaline. The eggs were sprayed with 20 μl of the test solution, the plates were sealed with pierced foils and kept at 24-26° C. and 75-85% humidity with a day/night cycle for 3 to 5 days. Mortality was assessed on the basis of the remaining unhatched eggs or larvae on the agar surface and/or quantity and depth of the digging channels caused by the hatched larvae. Tests were replicated 2 times.

[5] = system: Mediterranean Fruitfly (Ceratitis Capifata); test: Activity against Mediterranean fruitfly, eggs in microtiterplates; details: 144 h, eggs sprayed, 6 days
Description: (§2) The active compounds were formulated in 1:3 DMSO:water. 50 to 80 eggs were placed into microtiterplates filled with 0.5% agar-agar and 14% diet in water. The eggs were sprayed with 5 μl of the test solution, the plates were sealed with pierced foils and kept at 27-29° C. and 75-85% humidity under fluorescent light for 6 days. Mortality was assessed on the basis of the agility of the hatched larvae. Tests were replicated 2 times.

[6] = system: Tobacco Budworm (Heliothis Virescens); test: Activity against tobacco budworm, eggs in microtiterplates; details: 144 h, eggs sprayed, 6 days
Description: as §2, with “DMSO:water. 15” for “DMSO:water. 50”, “to 25” for “to 80”, “with diet.” for “with 0.5% agar-agar and 14% diet in water.”, “with 10” for “with 5”, “agility and of comparative feeding” for “agility”

[7] = system: Vetch Aphid (Megoura Viciae); test: Activity against vetch aphid, bean leaf disks in microtiterplates; details: foliar, 144 h, leaf disks sprayed, 6 days
Description: The active compounds were formulated in 1:3 DMSO:water. Bean leaf disks were placed into microtiterplates filled with 0.8% agar-agar and 2.5 ppm OPUS™. The leaf disks were sprayed with 2.5 μl of the test solution and 5 to 8 adult aphids were placed into the microtiterplates which were then closed and kept at 22-24° C. and 35-45% under fluorescent light for 6 days. Mortality was assessed on the basis of vital, reproduced aphids. Tests were replicated 2 times.

[8] = system: Cotton Aphid (Aphis Gossypil), mixed life stages; test: Cotton aphid, mixed life stages, cotton cotyledon dip; details: 120 h, after 5 days, read-out: mortality in comparison with untreated controls
Description: The active compounds were formulated in 50:50 acetone:water and 100 ppm Kinetic® surfactant.
Cotton plants at the cotyledon stage were infested prior to treatment by placing a heavily infested leaf from the main aphid colony on top of each cotyledon. The aphids were allowed to transfer overnight and the host leaf was removed. The infested cotyledons were then dipped and agitated in the test solution for 3 seconds and allowed to dry in a fume hood. Test plants were maintained under fluorescent lighting in a 24-hr photoperiod at 25° C. and 20-40% relative humidity. Aphid mortality on the treated plants, relative to mortality on untreated check plants, was determined after 5 days.

[9] = system: Green Peach Aphid (Myzus Persicae); test: Green peach aphid, pepper plant leaf dip; details: foliar, 120 h, after 5 days, read-out: mortality in comparison with untreated controls
Description: as §1
Pepper plants in the 2nd leaf-pair stage (variety California Wonder) were infested with approximately 40 laboratory-reared aphids by placing infested leaf sections on top of the test plants. The leaf sections were removed after 24 hr. The leaves of the intact plants were dipped into gradient solutions of the test compound and allowed to dry. Test plants were maintained under fluorescent light (24 hour photoperiod) at about 25° C. and 20-40% relative humidity. Aphid mortality on the treated plants, relative to mortality on check plants, was determined after 5 days.

[10] = system: Silverleaf whitefly (Bemisia Argentifolii); test: Silverleaf whitefly, cotton cotyledon dip; details: 72 h, 3 days after treatment, read-out: mortality in comparison with untreated controls
Description: as §1
Selected cotton plants were grown to the cotyledon state (one plant per pot). The cotyledons were dipped into the test solution to provide complete coverage of the foliage and placed in a well-vented area to dry. Each pot with treated seedling was placed in a plastic cup and 10 to 12 whitefly adults (approximately 3-5 day old) were introduced. The insects were colleted using an aspirator and an 0.6 cm, non-toxic Tygon tubing connected to a barrier pipette tip. The tip, containing the collected insects, was then gently inserted into the soil containing the treated plant, allowing insects to crawl out of the tip to reach the foliage for feeding. The cups were covered with a re-usable screened lid (150 micron mesh polyester screen PeCap from Tetko Inc). Test plants were maintained in the holding room at about 25° C. and 20-40% relative humidity for 3 days avoiding direct exposure to the fluorescent light (24 hour photoperiod) to prevent trapping of heat inside the cup. Mortality was assessed 3 days after treatment of the plants.

[11] = system: Cowpea Aphid (Aphis Craccivora); test: Activity against cowpea aphid, sprayed potted cowpea plants; details: population reduction recorded after 24, 72 and 120 hours, read-out: mortality in comparison with untreated controls
Description: The active compounds were formulated in 50:50 acetone:water. Potted cowpea plants colonized with 100-150 aphids of various stages were sprayed after the pest population has been recorded. Population reduction was recorded after 24, 72, and 120 hours.

[12] = system: Diamond Back Moth (plutella Xylostella); test: Activity against diamond back moth, cabbage leaf disk dip; details: foliar, after 72 h, read-out: mortality in comparison with untreated controls
Description: 13. Activity Against Diamond Back Moth (plutella Xylostella) The active compounds were formulated in 50:50 acetone:water and 0.1% (vol/vol) Alkamuls EL 620 surfactant. A 6 cm leaf disk of cabbage leaves was dipped in the test solution for 3 seconds and allowed to air dry in a Petri plate lined with moist filter paper. The leaf disk was inoculated with 10 third instar larvae and kept at 25-27° C. and 50-60% humidity for 3 days. Mortality was assessed after 72 h of treatment.

[13] = system: Yellowfever Mosquitos (Aedes Aegypti), 4th instar larvae; test: Activity against yellowfever mosquitos via water treatment
Description: The test compound (1 Vol % in acetone) was applied to 9 ml distilled water In polystyrene plastic 6-well plates. Treatment rates were applied 1 and 10 ppm. Ten, 4th instar yellowfever mosquito larvae, Aedes aegypti, were added to each well in 1 ml of distilled water. The test dishes were maintained at 22° C. and observed daily for mortality, up to 5 days after treatment. Each treatment was replicated in 6 wells.

[14] = system: Eastern Subterranean Termites (Reticulitérmes Flávipes); test: Activity against eastern subterranean termites via termite filter paper bait
Description: Toxicant treatments (0.1 and 0.3% test compound w/w) were applied to 4.25 cm (diam.) filter papers in acetone solution. Treatment levels (% test compound) were calculated on basis of a mean weight per filter paper of 106.5 mg. Treatment solutions were adjusted to provide the quantity of toxicant (mg) required per paper in […] of acetone. Acetone only was applied for untreated controls. Treated papers were vented to evaporate the acetone, moistened with 0.25 ml water, and placed in corresponding test arenas.
Termite bait bioassays were conducted in 100×15 mm Petri dishes with 1 teaspoon fine sand spread in a thin layer over the bottom of each dish. An additional 0.25 teaspoon sand was piled against the side of each dish. The sand was moistened with 2.7 ml water applied to the piled sand. Water was added to dishes as needed over the course of the bioassays to maintain high moisture content. Bioassays had one treated filter (on the sand) and 30 termite workers per test dish. Each treatment level was replicated in 3 test dishes. Test dishes were maintained at approximately 30° C. and 85% humidity for 14 days and observed daily for mortality.

[15] = system: Yellowfever Mosquito (Aedes aegypti); test: Yellowfever mosquito glass vial (glass contact) assay
Description: (§3) Glass vials (20 ml scintillation vials) were treated with 0.44 ml of a solution of active ingredient in acetone. Each vial was rolled uncapped for ca. 10 minutes to allow the active ingredient to completely coat the vial and to allow for full drying of the acetone. Six insects or ticks were placed into each vial, with 5 vials per treatment rate. The vials are kept at 22° C. and are observed for treatment effects at various time intervals.

[16] = system: House Fly (Musca domestica); test: House fly glass vial (glass contact) assay
Description: as §3

[17] = system: Acrobat Ant (Crematogaster sp.); test: Acrobat ant glass vial (glass contact) assay
Description: as §3

[18] = system: Acrobat Ant (Crematogaster sp.); test: Acrobat ant soil incorporation assay
Description: (§4) Soil was prepared by adding stock solutions (active dissolved in acetone) to 100 g sandy loam soil to make 1, 10, and 100 ppm batches. Jars of soils were rolled on a jar roller to mix thoroughly and then allowed to vent over night with the acetone evaporating off.
Ant bioassays were conducted in 100×20 mm Petri dishes and were prepared with a layer of 1% agar (7 ml) and then 12.75 g of dry treated soil. A cotton pellet (#2) soaked with a 10% sugar solution was added to each dish in a micro-weigh boat as a source of moisture and food. Each dish was then infested with 15 acrobat ant workers, Crematogaster sp. Three replicates were setup per treatment rate. Mortality was observed daily up to 7 days with moribund and dead ants removed at each reading.

[19] = system: Subterranean Termites (Reticulitermes flavipes); test: Termite soil incorporation assay; details: 100 ppm after 9 days
Description: as §4
Subterranean termite bioassays were conducted in 50×15 mm Petri dishes and were prepared with a layer of 1% agar (2 ml) and then 2 g of dry treated soil. A 1 cm^2 piece of filter paper, moistened with 1 drop of distilled water was added to each dish as a source of cellulose food. Each dish was then infested with 15 eastern subterranean termite workers, Reticulitermes flavipes. Five replicates were setup per treatment rate. Mortality was observed daily up to 7 days with moribund and dead termites removed at each reading.

Structure (SMILES): Cc1cc(C(F)(C(F)(F)F)C(F)(F)F)ccc1-c1ccc(S(=O)(=O)NCc2ccnc3ccccc23)cc1 [I-46]
- mortality in comparison with untreated controls [1]: at least 70%

Structure (SMILES): O=S(=O)(NCc1ccnc2c(Cl)cccc12)c1ccc(-c2ccc(C(F)(F)F)cc2C(F)(F)F)cc1 [I-22, 2′,4′-bis-trifluoromethyl-biphenyl-4-sulfonic acid (8-chloroquinoline-4-yl-methyl)-amide]
- mortality at 300 ppm [2]: ≥ 80%
- mortality at 300 ppm [3]: ≥ 75%

Structure (SMILES): O=S(=O)(NCc1ccnc2c(F)cccc12)c1ccc(Br)cc1 [II-5, 4-bromo-N-(8-fluoro-quinolin-4-ylmethyl)-benzenesulfonamide]
- mortality at 2500 ppm [4]: ≥ 75%

Structure (SMILES): O=S(=O)(NCc1ccnc2ccccc12)c1ccc(-c2cc(Cl)ccc2Cl)cc1 [I-8, 2′,5′-dichloro-biphenyl-4-sulfonicacid (quinoline-4-ylmethyl)-amide]
- mortality at 2500 ppm [4]: ≥ 75%
- mortality at 2500 ppm [5]: ≥ 75%
- mortality at 2500 ppm [6]: ≥ 75%
- mortality at 2500 ppm [7]: ≥ 75%
- mortality at 300 ppm [8]: ≥ 80%
- mortality at 300 ppm [2]: ≥ 80%
- mortality at 300 ppm [9]: ≥ 75%
- mortality at 300 ppm [10]: ≥ 70%
- mortality at 300 ppm [11]: ≥ 80%
- mortality at 300 ppm [12]: ≥ 75%

Structure (SMILES): O=S(=O)(NCc1ccnc2ccccc12)c1ccc(-c2ccc(C(F)(F)F)cc2C(F)(F)F)cc1 [I-10]
- mortality ([13]; 10 ppm after 5 days): 52%
- mortality ([14]; 0.3% w/w after 14 days): 86%
- mortality ([15]; 10 ppm after 24 hours): 100%
- mortality ([16]; 10 ppm after 24 hours): 80%
- mortality ([17]; 100 ppm after 2 days): 86%
- mortality ([18]; 100 ppm after 3 days): 100%
- mortality [19]: 84%

Structure (SMILES): O=S(=O)(NCc1ccnc2ccccc12)c1ccc(-c2ccc(Cl)cc2Cl)cc1 [I-1]
- mortality ([13]; 1 ppm after 3 days): 100%
- mortality ([14]; 0.1% w/w after 7 days): 99%
- mortality ([15]; 10 ppm after 48 hours): 37%
- mortality ([16]; 10 ppm after 48 hours): 30%
- mortality ([17]; 100 ppm after 4 days): 7%
- mortality ([18]; 100 ppm after 7 days): 36%
- mortality [19]: 95%
